Counter-ions that a name gives are not always drawn.
Key:
[1] = Acute toxicity studies in mice; conditions: mouse, in vivo, ip
Experimental: After a week, a select number of the mice were sacrificed.
Acute toxicity studies involving antineoplaston fractions A2-A5, antineoplaston A10 and degradation products were carried out in the same manner described above.

Rd/3 sarcoma = conditions: rats, cited from earlier work

SMILES	LD50 [1] [mg/kg]	enhancement of tumor growth (Rd/3 sarcoma; Rd/3 sarcoma)	effect on tumor growth, Rd/3 sarcoma (Rd/3 sarcoma; inhibition)
O=C1CCC(NC(=O)Cc2ccccc2)C(=O)N1 (stereo not drawn) [Antineoplaston A10, 3-[N-phenylacetylaminopiperidine]-2,6-dion]	10300		
O=C(O)Cc1ccccc1 [sodium salt of phenylacetic acid]		some enhancement of tumor growth	failed to inhibit tumor growth

— patent US4559325A, “Purified antineoplaston fractions and methods of treating neoplastic disease” (priority 1984, dated 1985)
